PubChem BioAssay AID2060896 (Molecular Pharmacology Branch, DTP, NCI, 2025)

System: 941728-121-R-J1-PDC complex spheroid viability
Assay: Anticancer human tumor 941728-121-R-J1-PDC patient-derived lung adenocarcinoma cell line growth inhibition [RAS]
Conditions: for viability, T/C: stronger effect = lower value
In short: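 Multi-cell-type spheroids: tumor cells plus HUVEC endothelial cells and mesenchymal stem cells. RAS-pathway inhibitors were combined with targeted agents, each dosed in half-log steps down from clinical Cmax, or from 10 microM when Cmax was unknown.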
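Also: spheroids exposed to compounds for 7 days before readout.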
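For viability, T/C in this document: 100% = DMSO vehicle control viability.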

In the case of `NC1c2ccccc2OC12CCN(c1cnc3c(N4CCCc5ncccc54)n[nH]c3n1)CC2` (stereo unspecified), the viability, T/C (compound 0.0316 µM) is reported as 48.2% [middle of 4 runs], the viability, T/C (compound 0.1 µM) is reported as 44.8% [middle of 4 runs] and the viability, T/C (compound 0.316 µM) is reported as 36% [middle of 4 runs]. For the same compound, the viability, T/C (compound 1 µM) was 47.1% [middle of 4 runs], the viability, T/C (compound 3.16 µM) was 41.8% [middle of 4 runs] and the viability, T/C (compound 10 µM) was 49% [middle of 4 runs]. For the same compound, the IC50 (curve of compound) was < 0.0316 µM.
For `CC1(C)CCC(Nc2ncc(C(F)(F)F)c(-c3c[nH]c4c(P(C)(C)=O)c(C#N)ccc34)n2)CN1` (stereo unspecified), the viability, T/C (compound 0.000949 µM) was 83.9% [middle of 4 runs], the viability, T/C (compound 0.003 µM) was 79.2% [middle of 4 runs] and the viability, T/C (compound 0.00949 µM) was 62.7% [middle of 4 runs]. The viability, T/C (compound 0.03 µM) was 63.8% [middle of 4 runs], the viability, T/C (compound 0.0949 µM) was 65% [middle of 4 runs] and the viability, T/C (compound 0.3 µM) was 53.4% [middle of 4 runs]. The IC50 (curve of compound) was > 0.3 µM.
For `NC1c2ccccc2OC12CCN(c1cnc3c(N4CCCc5ncccc54)n[nH]c3n1)CC2` (stereo unspecified) + CCn1c(-c2cc(N3CCN(C)CC3)cnc2C(C)OC)c2c3cc(ccc31)-c1csc(n1)CC(NC(=O)C1CC1C)C(=O)N1CCCC(N1)C(=O)OCC(C)(C)C2, the IC50 (curve of first compound, second compound 0.000949 µM) was < 0.0316 µM, the IC50 (curve of first compound, second compound 0.003 µM) was < 0.0316 µM and the IC50 (curve of first compound, second compound 0.00949 µM) was < 0.0316 µM. For the same compound, the IC50 (curve of first compound, second compound 0.03 µM) was < 0.0316 µM, the IC50 (curve of first compound, second compound 0.0949 µM) was < 0.0316 µM and the IC50 (curve of first compound, second compound 0.3 µM) was < 0.0316 µM. For the same compound, the viability, T/C (second compound 0.000949 µM, first compound 0.0316 µM) was 22%, the viability, T/C (second compound 0.000949 µM, first compound 0.1 µM) was 17.4% and the viability, T/C (second compound 0.000949 µM, first compound 0.316 µM) was 13.4%. The viability, T/C (second compound 0.000949 µM, first compound 1 µM) was 16.5%, the viability, T/C (second compound 0.000949 µM, first compound 3.16 µM) was 16.6% and the viability, T/C (second compound 0.000949 µM, first compound 10 µM) was 12%. For the same compound, the viability, T/C (second compound 0.003 µM, first compound 0.0316 µM) was 15.2%, the viability, T/C (second compound 0.003 µM, first compound 0.1 µM) was 12.4% and the viability, T/C (second compound 0.003 µM, first compound 0.316 µM) was 10.6%. The viability, T/C (second compound 0.003 µM, first compound 1 µM) was 14%, the viability, T/C (second compound 0.003 µM, first compound 3.16 µM) was 13.8% and the viability, T/C (second compound 0.003 µM, first compound 10 µM) was 10.3%. The viability, T/C (second compound 0.00949 µM, first compound 0.0316 µM) was 13.7%, the viability, T/C (second compound 0.00949 µM, first compound 0.1 µM) was 10.5% and the viability, T/C (second compound 0.00949 µM, first compound 0.316 µM) was 12.5%. It also gave a viability, T/C (second compound 0.00949 µM, first compound 1 µM) of 10.8%, a viability, T/C (second compound 0.00949 µM, first compound 3.16 µM) of 9.25% and a viability, T/C (second compound 0.00949 µM, first compound 10 µM) of 9.84%. The viability, T/C (second compound 0.03 µM, first compound 0.0316 µM) was 11.9%, the viability, T/C (second compound 0.03 µM, first compound 0.1 µM) was 12.4% and the viability, T/C (second compound 0.03 µM, first compound 0.316 µM) was 12.1%. For the same compound, the viability, T/C (second compound 0.03 µM, first compound 1 µM) was 11.1%, the viability, T/C (second compound 0.03 µM, first compound 3.16 µM) was 11.3% and the viability, T/C (second compound 0.03 µM, first compound 10 µM) was 15.1%. The viability, T/C (second compound 0.0949 µM, first compound 0.0316 µM) was 11.4%, the viability, T/C (second compound 0.0949 µM, first compound 0.1 µM) was 13.5% and the viability, T/C (second compound 0.0949 µM, first compound 0.316 µM) was 12.8%. It also gave a viability, T/C (second compound 0.0949 µM, first compound 1 µM) of 12.2%, a viability, T/C (second compound 0.0949 µM, first compound 3.16 µM) of 10.5% and a viability, T/C (second compound 0.0949 µM, first compound 10 µM) of 15.2%. It also gave a viability, T/C (second compound 0.3 µM, first compound 0.0316 µM) of 11.6%, a viability, T/C (second compound 0.3 µM, first compound 0.1 µM) of 12.1% and a viability, T/C (second compound 0.3 µM, first compound 0.316 µM) of 10.4%. The viability, T/C (second compound 0.3 µM, first compound 1 µM) was 10.9%, the viability, T/C (second compound 0.3 µM, first compound 3.16 µM) was 10.4% and the viability, T/C (second compound 0.3 µM, first compound 10 µM) was 15.5%.
